# According to patent US20190375708A1 (VenatoRx Pharmaceuticals, Inc., priority 2018, published 2019):
# What was measured:
# [1] = test system: HBV replication in HepAD38 cells; assay: Anti-HBV replication assay in HepAD38 cells (QPCR of extracellular HBV DNA); type: cell-based, HBV (genotype D, serotype ayw); conditions: Hepatitis B virus, 168 h, 7 days incubation, extracellular HBV DNA by QPCR, read-out: Anti-HBV EC50
# Outline: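 Tet-off HepAD38, 7-day compound exposure ([…], 1 log10 steps, DMSO vehicle), 37 °C. Extracellular HBV DNA by QPCR, copies/mL via standard curve, % inhibition vs vehicle, EC50 by 4-parameter regression. Entecavir as positive control.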
# [2] = In vitro cytotoxicity assay (MTT cell viability) in HepG2 cells; type: cell-based, human; conditions: human
# Outline: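 CC50 values reflect loss of HepG2 viability after a 7-day exposure at 37 °C, 5% CO2. After 3-4 h with MTT, solubilized formazan was quantified at 492 nm relative to vehicle wells.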
Compound,EC50 [1] [µM],CC50 at 7 days [2] [µM]
"Cc1c(C(=O)Nc2ccnc(F)c2)c(C)n(C)c1C(=O)C(=O)NC(C)(C)CO [Example 133, N-(2-fluoropyridin-4-yl)-5-(2-((1-hydroxy-2-methylpropan-2-yl)amino)-2-oxoacetyl)-1,2,4-trimethyl-1H-pyrrole-3-carboxamide]",0.05 to 0.499,> 30
"COCC(C)(C)NC(=O)C(=O)c1c(C)c(C(=O)Nc2ccc(F)nc2)c(C)n1C [Example 168, N-(6-fluoropyridin-3-yl)-5-(2-((1-methoxy-2-methylpropan-2-yl)amino)-2-oxoacetyl)-1,2,4-trimethyl-1H-pyrrole-3-carboxamide]",0.05 to 0.499,> 30
"Cc1cc(NC(=O)c2c(C)c(C(=O)C(=O)NC3CCc4nc(N)sc4C3)n(C)c2C)cnc1F (stereo in doubt) [Example 138, (S)-5-(2-((2-amino-4,5,6,7-tetrahydrobenzo[d]thiazol-6-yl)amino)-2-oxoacetyl)-N-(6-fluoro-5-methylpyridin-3-yl)-1,2,4-trimethyl-1H-pyrrole-3-carboxamide]",< 0.05,0.5 to 4.99
"Cc1nnc(C2(NC(=O)C(=O)c3c(C)c(C(=O)Nc4ccc(F)c(C)c4)c(C)n3C)CC2)o1 [Example 182, N-(4-fluoro-3-methylphenyl)-1,2,4-trimethyl-5-(2-((1-(5-methyl-1,3,4-oxadiazol-2-yl)cyclopropyl)amino)-2-oxoacetyl)-1H-pyrrole-3-carboxamide]",< 0.05,> 30
"Cc1noc([C@H](C)NC(=O)C(=O)c2c(Cl)c(C(=O)Nc3ccc(F)c(F)c3)c3n2CCC3)n1 [Example 568, (S)-6-chloro-N-(3,4-difluorophenyl)-5-(2-((1-(3-methyl-1,2,4-oxadiazol-5-yl)ethyl)amino)-2-oxoacetyl)-2,3-dihydro-1H-pyrrolizine-7-carboxamide]",< 0.05,5 to 30
"Cc1cc(NC(=O)c2c(C)c(C(=O)C(=O)N[C@H](C)C(F)(F)F)n(C)c2C)ccc1F [Example 289, (R)-N-(4-fluoro-3-methylphenyl)-1,2,4-trimethyl-5-(2-oxo-2-((1,1,1-trifluoropropan-2-yl)amino)acetyl)-1H-pyrrole-3-carboxamide]",< 0.05,5 to 30
"Cc1cc(NC(=O)c2c(C)c(C(=O)C(=O)NC(C)(C)C(=O)O)n(C)c2C)ccc1F [Example 29, 2-(2-(4-((4-fluoro-3-methylphenyl)carbamoyl)-1,3,5-trimethyl-1H-pyrrol-2-yl)-2-oxoacetamido)-2-methylpropanoic acid]",0.5 to 1,> 30
"Cc1c(C(=O)Nc2ccc(F)c(Cl)c2)c2n(c1C(=O)C(=O)NCC(C)(C)O)CCCC2 [Example 467, N-(3-chloro-4-fluorophenyl)-3-(2-((2-hydroxy-2-methylpropyl)amino)-2-oxoacetyl)-2-methyl-5,6,7,8-tetrahydroindolizine-1-carboxamide]",0.5 to 1,> 30
"Cc1cc(NC(=O)c2c(C)c(C(=O)C(=O)NC(C)(C)C(F)(F)F)n(C)c2C)cnc1F [Example 173, N-(6-fluoro-5-methylpyridin-3-yl)-1,2,4-trimethyl-5-(2-oxo-2-((1,1,1-trifluoro-2-methylpropan-2-yl)amino)acetyl)-1H-pyrrole-3-carboxamide]",< 0.05,> 30
"Cc1cc(NC(=O)c2cc(C(=O)C(=O)NC(C)(C)C)n3c2CNCC3)ccc1F [Example 588, 6-(2-(tert-butylamino)-2-oxoacetyl)-N-(4-fluoro-3-methylphenyl)-1,2,3,4-tetrahydropyrrolo[1,2-a]pyrazine-8-carboxamide]",0.05 to 0.499,5 to 30
"CO[C@H]1CC[C@@H](NC(=O)C(=O)c2c(C)c(C(=O)Nc3ccc(F)c(C)c3)c(C)n2C)CC1 [Example 268, N-(4-fluoro-3-methylphenyl)-5-(2-(((1s,4s)-4-methoxycyclohexyl)amino)-2-oxoacetyl)-1,2,4-trimethyl-1H-pyrrole-3-carboxamide]",< 0.05,5 to 30
"Cc1cc(NC(=O)c2c(C)c(C(=O)C(=O)NCc3csc(N)n3)n(CCF)c2C)ccc1F [Example 229, 5-(2-(((2-aminothiazol-4-yl)methyl)amino)-2-oxoacetyl)-N-(4-fluoro-3-methylphenyl)-1-(2-fluoroethyl)-2,4-dimethyl-1H-pyrrole-3-carboxamide]",< 0.05,> 30
"Cc1cc(NC(=O)c2c(Cl)c(C(=O)C(=O)NC3(CO)CCC3)n3c2CCC3)ccc1F [Example 541, 6-chloro-N-(4-fluoro-3-methylphenyl)-5-(2-((1-(hydroxymethyl)cyclobutyl)amino)-2-oxoacetyl)-2,3-dihydro-1H-pyrrolizine-7-carboxamide]",< 0.05,> 30
"O=C(N[C@H]1C[C@H](O)C1)C(=O)c1c(Cl)c(C(=O)Nc2ccc(F)c(Cl)c2)c2n1CCCC2 [Example 531, 2-chloro-N-(3-chloro-4-fluorophenyl)-3-(2-(((1r,3r)-3-hydroxycyclobutyl)amino)-2-oxoacetyl)-5,6,7,8-tetrahydroindolizine-1-carboxamide]",0.05 to 0.499,> 30
Cc1nnc(CCNC(=O)C(=O)c2c(C)c(C(=O)Nc3ccc(F)c(C)c3)c(C)n2C)s1 [Example 356],< 0.05,> 30
"Cc1c(C(=O)Nc2ccn(C)n2)c2n(c1C(=O)C(=O)NC1(CO)CCC1)CCCC2 [Example 748, 3-(2-((1-(hydroxymethyl)cyclobutyl)amino)-2-oxoacetyl)-2-methyl-N-(1-methyl-1H-pyrazol-3-yl)-5,6,7,8-tetrahydroindolizine-1-carboxamide]",0.05 to 0.499,> 30
"COc1cc(NC(=O)C(=O)c2c(C)c(C(=O)Nc3ccc(F)c(C)c3)c(C)n2C)ccc1B(O)O [Example 248, (4-(2-(4-((4-fluoro-3-methylphenyl)carbamoyl)-1,3,5-trimethyl-1H-pyrrol-2-yl)-2-oxoacetamido)-2-methoxyphenyl)boronic acid]",0.05 to 0.499,5 to 30
"Cc1cc(NC(=O)c2c(C)c(C(=O)C(=O)N[C@H]3CCNC3=O)n(C)c2C)ccc1F [Example 671, (S)-N-(4-fluoro-3-emthylphenyl)-1,2,4-trimethyl-5-(2-oxo-2-((2-oxopyrroldin-3-yl)amino)acetyl)-1H-pyrrole-3-carboxamide]",< 0.05,> 30
"Cc1cc(NC(=O)c2c(C)c(C(=O)C(=O)N[C@@H]3CCC[C@@H]3O)n(C)c2C)ccc1F [Example 146, N-(4-fluoro-3-methylphenyl)-5-(2-(((1R,2S)-2-hydroxxycyclopentyl)amino)-2-oxoacetyl)-1,2,4-trimethyl-1H-pyrrole-3-carboxamide]",< 0.05,> 30
"Cc1cc(NC(=O)c2c(C)c(C(=O)C(=O)N[C@@H]3CCC[C@H]3O)n(C)c2C)cnc1F [Example 132, N-(6-fluoro-5-methylpyridin-3-yl)-5-(2-(((1R,2R)-2-hydroxycyclopentyl)amino)-2-oxoacetyl)-1,2,4-trimethyl-1H-pyrrole-3-carboxamide]",0.05 to 0.499,> 30
"Cc1c(C(=O)Nc2ccc(F)c(F)c2)c(C)n(C)c1C(=O)C(=O)NC(C)(C)C [Example 4, 5-(2-(tert-butylamino)-2-oxoacetyl)-N-(3,4-difluorophenyl)-1,2,4-trimethyl-1H-pyrrole-3-carboxamide]",< 0.05,> 30
"Cc1c(C(=O)Nc2cc(F)c(F)c(F)c2)c(Cl)c(C(=O)C(=O)NCC(C)(C)O)n1C [Example 372, 4-chloro-5-(2-((2-hydroxy-2-methylpropyl)amino)-2-oxoacetyl)-1,2-dimethyl-N-(3,4,5-trifluorophenyl)-1H-pyrrole-3-carboxamide]",< 0.05,0.5 to 4.99
"Cc1cc(NC(=O)c2c(Cl)c(C(=O)C(=O)NC3(CO)CC(F)(F)C3)n3c2CCC3)cnc1F [Example 579, 6-chloro-5-(2-((3,3-difluoro-1-(hydroxymethyl)cyclobutyl)amino)-2-oxoacetyl)-N-(6-fluoro-5-methylpyridin-3-yl)-2,3-dihydro-1H-pyrrolizine-7-carboxamide]",0.5 to 1,> 30
"Cc1cc(NC(=O)c2c(Cl)c(C(=O)C(=O)NCC(C)(C)CO)n3c2CCC3)cnc1F [Example 577, 6-chloro-N-(6-fluoro-5-methylpyridin-3-yl)-5-(2-((3-hydroxy-2,2-dimethylpropyl)amino)-2-oxoacetyl)-2,3-dihydro-1H-pyrrolizine-7-carboxamide]",> 1,> 30
"Cc1cc(NC(=O)c2c(C)c(C(=O)C(=O)N[C@H]3COC[C@@H]3N3CCOCC3)n(C)c2C)ccc1F [Example 711, N-(4-fluoro-3-methylphenyl)-1,2,4-trimethyl-5-(2-(((3R,4R)-4-morpholinotetrahydrofuran-3-yl)amino)-2-oxoacetyl)-1H-pyrrole-3-carboxamide]",< 0.05,> 30
"Cc1cc(NC(=O)c2c(Cl)c(C(=O)C(=O)N[C@@H](C)C(F)(F)F)n3c2CCC3)cnc1F [Example 574, (S)-6-chloro-N-(6-ffluoro-5-methylpyridin-3-yl)-5-(2-oxo-2-((1,1,1-trifluoropropan-2-yl)amino)acetyl)-2,3-dihydro-1H-pyrroliine-7-carboxamide]",0.5 to 1,5 to 30
"CC(C)(C)NC(=O)C(=O)c1cc(C(=O)Nc2ccc(F)c(C(F)F)c2)c2n1CCCC2 [Example 400, 3-(2-(tert-butylamino)-2-oxoacetyl)-N-(3-(difluoromethyl)-4-fluorophenyl)-5,6,7,8-tetrahydroindolizine-1-carboxamide]",0.05 to 0.499,> 30
